Source: PubChem BioAssay AID540340 (Sanford-Burnham Center for Chemical Genomics, 2011)

biological target: C-C chemokine receptor type 6 (Homo sapiens) (UniProt P51684); experiment: inhibition of CXCL13-driven CXCR5 beta-arrestin recruitment – cell-based, luminescence, CHO-K1 PathHunter, selectivity assay for CCR6 antagonist project, SAR follow-up (AID 540340); details: CCR6 beta-arrestin antagonism, AID540334
Sequence (P51684 whole entry, looked up): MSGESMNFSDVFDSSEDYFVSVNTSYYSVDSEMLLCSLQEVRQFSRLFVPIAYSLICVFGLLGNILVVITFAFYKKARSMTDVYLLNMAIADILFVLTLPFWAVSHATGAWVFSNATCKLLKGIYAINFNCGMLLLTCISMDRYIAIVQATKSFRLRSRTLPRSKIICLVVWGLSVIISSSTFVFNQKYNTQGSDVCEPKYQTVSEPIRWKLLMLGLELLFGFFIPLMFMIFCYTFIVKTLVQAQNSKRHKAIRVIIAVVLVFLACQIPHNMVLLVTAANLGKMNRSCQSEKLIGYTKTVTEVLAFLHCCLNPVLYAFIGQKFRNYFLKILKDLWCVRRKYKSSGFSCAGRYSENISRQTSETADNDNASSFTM

First: CN1CCc2nc(SCc3ccc(Cl)cc3)c(C#N)c(-c3cccs3)c2C1
Second: Cn1c(O)c(C2=NNC(c3ccc(Cl)cc3)C2)c(=O)n(C)c1=O (stereo unspecified)
The IC50 of the first is higher: over 66.6 µM for the first, 5.84 µM for the second. The second is the more potent here.

O=C1C2C3C=CC(CO)(O3)C2C(=O)N1c1ccccc1-c1ccccc1 (stereo unspecified) and Cc1cccc2c1N(CCCOc1ccc(C(C)(C)C)cc1)C(=O)C2=O cannot be ordered by IC50: over 66.6 µM for the first, over 66.6 µM for the second.

First: CCCCCCCCCCCCC/C=C/[C@@H](O)[C@@H](N)CO
Second: C/C=C(\C)C(=O)OC1[C@H](OC(C)=O)C2(CO)C(CC1(C)C)C1=CCC3C4(C)CCC(O[C@@H]5O[C@H](C(=O)O)[C@@H](O[C@@H]6O[C@H](CO)[C@@H](O)[C@H](O)[C@H]6O)[C@H](O)[C@H]5O[C@H]5O[C@H](CO)[C@@H](O)[C@H](O)[C@H]5O)[C@](C)(CO)C4CCC3(C)[C@]1(C)C[C@H]2O (stereo partly specified)
The IC50 of the first is 2.7-fold higher: 20.9 µM for the first, 7.82 µM for the second. The second is the more potent here.
